Assay results: US8455399B2, “N-(4-perfluoroalkyl-phenyl)-4-triazolyl-benzamides as insecticides” (Syngenta Crop Protection LLC, priority 2009, dated 2013)

How the values were obtained:
Type in all cases: in vivo
Spodoptera littoralis = Spodoptera littoralis (Egyptian cotton leafworm) leaf disc spray test; conditions: foliar, 72 h, 200 ppm sprayed on cotton leaf discs, 5 L1 larvae, mortality, feeding behavior, growth regulation 3 days after treatment
Excerpt: Spodoptera Littoralis (Egyptian Cotton Leafworm): Cotton leaf discs were placed on agar in a 24-well microtiter plate and sprayed with test solutions at an application rate of 200 ppm. After drying, the leaf discs were infested with 5 L1 larvae. The samples were checked for mortality, feeding behavior, and growth regulation 3 days after treatment (DAT).

Heliothis virescens = Heliothis virescens (tobacco budworm) egg/artificial diet test; conditions: 96 h, 200 ppm (concentration in well 18 ppm), eggs 0-24 h old on artificial diet, egg mortality, larval mortality, growth regulation after 4 days
Description: Heliothis Virescens (Tobacco Budworm): Eggs (0-24 h old) were placed in 24-well microtiter plate on artificial diet and treated with test solutions at an application rate of 200 ppm (concentration in well 18 ppm) by pipetting. After an incubation period of 4 days, samples were checked for egg mortality, larval mortality, and growth regulation.

Plutella xylostella = Plutella xylostella (diamond back moth) artificial diet test; conditions: 144 h, 200 ppm (concentration in well 18 ppm), L2 larvae, larval mortality and growth regulation after 6 days
Description: (§1) Plutella Xylostella (Diamond Back Moth): 24-well microtiter plate (MTP) with artificial diet was treated with test solutions at an application rate of 200 ppm (concentration in well 18 ppm) by pipetting. After drying, the MTP's were infested with L2 larvae (7-12 per well). After an incubation period of 6 days, samples were checked for larval mortality and growth regulation.

Diabrotica balteata = Diabrotica balteata (corn root worm) artificial diet test; conditions: 120 h, 200 ppm (concentration in well 18 ppm), L2 larvae, larval mortality and growth regulation after 5 days
Description: as §1, with “Diabrotica Balteata (Corn Root Worm): A” for “Plutella Xylostella (Diamond Back Moth):”, “(6-10” for “(7-12”, “5” for “6”

Thrips tabaci = Thrips tabaci (onion thrips) leaf disc spray test; conditions: foliar, 168 h, 200 ppm sprayed on sunflower leaf discs, population of mixed ages, mortality after 7 days
Description: Thrips Tabaci (Onion Thrips): Sunflower leaf discs were placed on agar in a 24-well microtiter plate and sprayed with test solutions at an application rate of 200 ppm. After drying, the leaf discs were infested with an […] population of mixed ages. After an incubation period of 7 days, samples were checked for mortality.

Tetranychus urticae = Tetranychus urticae (two-spotted spider mite) leaf disc spray test; conditions: foliar, 192 h, 200 ppm sprayed on bean leaf discs, mite populations of mixed ages, egg, larval and adult mortality 8 days later
Excerpt: Tetranychus Urticae (Two-Spotted Spider Mite): Bean leaf discs on agar in 24-well microtiter plates were sprayed with test solutions at an application rate of 200 ppm. After drying, the leaf discs are infested with mite populations of mixed ages. 8 days later, discs are checked for egg mortality, larval mortality, and adult mortality.

Measured: pest or weed control at 200 ppm

CCc1cc(C(F)(C(F)(F)F)C(F)(F)C(F)(F)F)cc(C)c1NC(=O)c1ccc(-n2cncn2)c(NC(=O)c2ccc(F)cc2)c1 (stereo not drawn) [D6, 3-(4-Fluorobenzoylamino)-N-[2-ethyl-4-(1,2,2,3,3,3-hexafluoro-1-trifluoromethyl-propyl)-6-methylphenyl]-4-(1,2,4-triazol-1-yl)benzamide]
≥ 80%: all assays above
